For orientation: IC50 means the concentration needed to halve the response being measured.

This note sets out measurements from US20250163104A1, “MACROCYCLIC IMMUNOMODULATORS” (priority 2021, published 2025).

The target in the experiment is T1, human PD-1 / PD-L1-Ig binding on Jurkat cell line over-expressing human PD-1 (Jurkat-PD-1) (Homo sapiens, UniProt Q15116).
T1 construct: expressed in transfected cells; host or cells: Jurkat
As to the kind of experiment: Jurkat-PD-1 Cell Binding High-Content Screening Assay (CBA). The note with it: Jurkat-PD-1 cells, PE-labeled PD-L1-Ig 20 nM final; read-out: Jurkat HPD1_PDL1 IC50. The class given is cell-based. An outline of the steps: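 Read-out: high-content imaging of PE-tagged PD-L1-Ig bound to Jurkat cells overexpressing human PD-1, after fixation with 4% paraformaldehyde and Hoechst 33342 nuclear staining. Ligand was used at 20 nM final for 1 hour, after a 2 h compound exposure at 37° C in serum-containing DMEM.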

*1 amine or outer side, *2 acyl side, *3 side chain or, on linkers, in order; H or OH if unused. Where a SMILES comes first, the peptide text is derived from it. Bridges are numbered along the chain shown (N, C = ends). [ ]: non-standard residue; d: D form. The star is where a group is joined. Phe(3-CH2NH2) = O=C([C@H](Cc1cccc(CN[*:3])c1)N[*:1])[*:2]; Bip = N[C@@H](Cc1ccc(-c2ccccc2)cc1)C(=O)O; Phe(4-NH2) = Nc1ccc(C[C@H](N)C(=O)O)cc1; Phe(2-Cl) = N[C@@H](Cc1ccccc1Cl)C(=O)O; Phe(3-Me) = Cc1cccc(C[C@H](N)C(=O)O)c1; 4Pal = N[C@@H](Cc1ccncc1)C(=O)O; Cha = N[C@@H](CC1CCCCC1)C(=O)O; Cit = NC(=O)NCCC[C@H](N)C(=O)O; dNle = CCCC[C@@H](N)C(=O)O; Carboxymethyl = O=C(O)C*; Orn = NCCC[C@H](N)C(=O)O; Dab = NCC[C@H](N)C(=O)O; Dap = NC[C@H](N)C(=O)O

T1 sequence (Q15116 25-288): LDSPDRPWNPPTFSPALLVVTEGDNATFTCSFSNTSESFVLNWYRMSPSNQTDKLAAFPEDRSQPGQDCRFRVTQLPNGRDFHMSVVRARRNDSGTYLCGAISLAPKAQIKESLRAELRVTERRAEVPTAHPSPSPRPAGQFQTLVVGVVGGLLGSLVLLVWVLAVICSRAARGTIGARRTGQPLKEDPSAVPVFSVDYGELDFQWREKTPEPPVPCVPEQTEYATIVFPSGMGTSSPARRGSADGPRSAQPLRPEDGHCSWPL

Regarding `CC(C)C[C@H]1NC(=O)[C@H](CCCN)NC(=O)[C@H](CCC(=O)O)NC(=O)[C@H](Cc2ccc(-c3ccccc3)cc2)NC(=O)[C@H](C(C)C)NC(=O)[C@H](Cc2c[nH]c3ccccc23)NC(=O)[C@H](CC(=O)O)NC(=O)[C@H](Cc2ccc(OCC(=O)O)cc2)NC(=O)[C@H](CN)NC(=O)CSC[C@@H](C(=O)N[C@@H](C)C(N)=O)NC(=O)[C@H]([C@@H](C)O)NC(=O)[C@H](C(C)C)NC(=O)[C@H](Cc2ccccc2Cl)NC(=O)[C@H](CCN)NC1=O` [Compound 1483] ({CH2CO}-[Dap]Y(Carboxymethyl)DWV[Bip]E[Orn][dL][Dab][Phe(2-Cl)]VTCA-NH2; thioether N-14), the 50% inhibitory concentration (IC50) stood at 34.8 nM.

Consider `Cc1cccc(C[C@@H]2NC(=O)[C@H](CC(=O)O)NC(=O)[C@H](Cc3ccncc3)NC(=O)[C@H](CN)NC(=O)CSC[C@@H](C(=O)N[C@@H](C)C(N)=O)NC(=O)[C@H]([C@@H](C)O)NC(=O)[C@H](C(C)C)NC(=O)[C@H](CC(C)C)NC(=O)[C@H](CCN)NC(=O)[C@@H](CC(C)C)NC(=O)[C@H](CCCN)NC(=O)[C@H](CCCNC(N)=O)NC(=O)[C@H](Cc3ccc(-c4ccccc4)cc3)NC(=O)[C@H](C(C)C)NC2=O)c1` [Compound 1239] ({CH2CO}-[Dap][4Pal]D[Phe(3-Me)]V[Bip][Cit][Orn][dL][Dab]LVTCA-NH2; thioether N-14), for which the 50% inhibitory concentration (IC50) is 14.3 nM.

As for `CC(C)C[C@H]1NC(=O)[C@H](CCCN)NC(=O)[C@H](CCC(=O)O)NC(=O)[C@H](Cc2ccc(-c3ccccc3)cc2)NC(=O)[C@H](C(C)C)NC(=O)[C@H](Cc2c[nH]c3ccccc23)NC(=O)[C@H](CC(=O)O)NC(=O)[C@H](Cc2ccc(OCC(=O)O)cc2)NC(=O)[C@H](CN)NC(=O)CSC[C@@H](C(=O)N[C@@H](C)C(N)=O)NC(=O)[C@H]([C@@H](C)O)NC(=O)[C@H](C(C)C)NC(=O)[C@H](Cc2cccc(CN)c2)NC(=O)[C@H](CCN)NC1=O` [Compound 1508] ({CH2CO}-[Dap]Y(Carboxymethyl)DWV[Bip]E[Orn][dL][Dab][Phe(3-CH2NH2)]VTCA-NH2; thioether N-14), the IC50 was determined as 163 nM.

For `CC(C)C[C@H]1NC(=O)[C@H](CCCN)NC(=O)[C@H](CCC(=O)O)NC(=O)[C@H](Cc2ccc(-c3ccccc3)cc2)NC(=O)[C@H](C(C)C)NC(=O)[C@H](Cc2cccc(C(F)(F)F)c2)NC(=O)[C@H](CC(=O)O)NC(=O)[C@H](Cc2ccc(OCC(=O)O)cc2)NC(=O)[C@H](CN)NC(=O)CSC[C@@H](C(=O)N[C@@H](C)C(N)=O)NC(=O)[C@H]([C@@H](C)O)NC(=O)[C@H](C(C)C)NC(=O)[C@H](CC2CCCCC2)NC(=O)[C@H](CCN)NC1=O` [Compound 1458], the IC50 stood at 17.9 nM.

For the compound `CCCC[C@H]1NC(=O)[C@H](CCCN)NC(=O)[C@H]([C@@H](C)CC)NC(=O)[C@H](Cc2ccc(-c3ccccc3)cc2)NC(=O)[C@H](C(C)C)NC(=O)[C@H](Cc2c[nH]c3ccccc23)NC(=O)[C@H](CC(=O)O)NC(=O)[C@H](Cc2ccncc2)NC(=O)[C@H](Cc2ccc(OCC(=O)O)cc2)NC(=O)CSC[C@@H](C(=O)N[C@@H](C)C(N)=O)NC(=O)[C@H]([C@@H](C)O)NC(=O)[C@H](C(C)C)NC(=O)[C@H](CC2CCCCC2)NC(=O)[C@H](CCN)NC1=O` [Compound 1710] ({CH2CO}-Y(Carboxymethyl)[4Pal]DWV[Bip]I[Orn][dNle][Dab][Cha]VTCA-NH2; thioether N-14), the IC50 was 33.9 nM.

With `CC(C)C[C@H]1NC(=O)[C@H](CCCN)NC(=O)[C@H](CCC(=O)O)NC(=O)[C@H](Cc2ccc(-c3ccccc3)cc2)NC(=O)[C@H](C(C)C)NC(=O)[C@H](Cc2c[nH]c3ccccc23)NC(=O)[C@H](CC(=O)O)NC(=O)[C@H](Cc2ccc(N)cc2)NC(=O)[C@H](CC(N)=O)NC(=O)CSC[C@@H](C(=O)N[C@@H](C)C(N)=O)NC(=O)[C@H]([C@@H](C)O)NC(=O)[C@H](C(C)C)NC(=O)[C@H](CC2CCCCC2)NC(=O)[C@H](CCN)NC1=O` [Compound 2180] ({CH2CO}-N[Phe(4-NH2)]DWV[Bip]E[Orn][dL][Dab][Cha]VTCA-NH2; thioether N-14), the IC50 was 28.1 nM.
